# In ChEMBL document CHEMBL3885861, “Open TG-GATES”:
# Organism: Rattus norvegicus
# Experiment: Open TG-GATES - Regimen: Daily Repeat
# Assay type: toxicity, organism-based, Sprague-Dawley
# Parameters: regimen Daily Repeat, gender Male, age 6 weeks
# Conditions: in vivo, po, 1 mg/kg, route gavage, dose level Low; for APTT / Bas / Eos / Fbg / Hb / Ht / Lym / MCH / MCHC / MCV / Mono / Neu / PT / Plat / RBC / Ret / WBC: tissue Blood; for KIDNEY_L / KIDNEY_R / KIDNEY_TOTAL: tissue Kidney; for LIVER: tissue Liver; for A/G / ALP / ALT / AST / BUN / CRE / Ca / Cl / DBIL / GLC / IP / K / LDH / Na / PL / RALB / TBIL / TC / TG / TP / gamma-GTP: tissue Plasma
compound,measurement,setting,value
O=NN(CCCl)C(=O)NC1CCCCC1 [LOMUSTINE],TERMINAL_BW,"72 h, time 3 day",228.6 g
same,APTT,"72 h, time 3 day",15.3 s
same,Bas,"72 h, time 3 day",0%
same,Eos,"72 h, time 3 day",0.8%
same,Fbg,"72 h, time 3 day",224.2 mg/dL
same,Hb,"72 h, time 3 day",12.9 g/dL
same,Ht,"72 h, time 3 day",38.5%
same,Lym,"72 h, time 3 day",81.2%
same,MCH,"72 h, time 3 day",21.6 pg
same,MCHC,"72 h, time 3 day",33.4%
same,MCV,"72 h, time 3 day",64.8 fL
same,Mono,"72 h, time 3 day",7.6%
same,Neu,"72 h, time 3 day",10.2%
same,PT,"72 h, time 3 day",11.8 s
same,Plat,"72 h, time 3 day",108.2 x10_4/uL
same,RBC,"72 h, time 3 day",594.4 x10_4/ul
same,Ret,"72 h, time 3 day",8.5%
same,WBC,"72 h, time 3 day",121.5 x10_2/uL
same,KIDNEY_L,"72 h, time 3 day",1.1 g
same,KIDNEY_R,"72 h, time 3 day",1.1 g
same,KIDNEY_TOTAL,"72 h, time 3 day",2.2 g
same,LIVER,"72 h, time 3 day",11.3 g
same,A/G,"72 h, time 3 day",2.2
same,ALP,"72 h, time 3 day",863 IU/L
same,ALT,"72 h, time 3 day",30 IU/L
same,AST,"72 h, time 3 day",62 IU/L
same,BUN,"72 h, time 3 day",16 mg/dL
same,CRE,"72 h, time 3 day",0.5 mg/dL
same,Ca,"72 h, time 3 day",11.1 mg/dL
same,Cl,"72 h, time 3 day",105 meq/L
same,DBIL,"72 h, time 3 day",0.022 mg/dL
same,GLC,"72 h, time 3 day",188 mg/dL
same,IP,"72 h, time 3 day",8.1 mg/dL
same,K,"72 h, time 3 day",4.9 meq/L
same,LDH,"72 h, time 3 day",78 IU/L
same,Na,"72 h, time 3 day",138.6 meq/L
same,PL,"72 h, time 3 day",144 mg/dL
same,RALB,"72 h, time 3 day",3.9 g/dL
same,TBIL,"72 h, time 3 day",0.3 mg/dL
same,TC,"72 h, time 3 day",79.2 mg/dL
same,TG,"72 h, time 3 day",85.8 mg/dL
same,TP,"72 h, time 3 day",5.7 g/dL
same,gamma-GTP,"72 h, time 3 day",1 IU/L
same,TERMINAL_BW,"[…], time 7 day",255.7 g
same,TERMINAL_BW,"[…], time 14 day",313 g
same,TERMINAL_BW,"[…], time 28 day",386.4 g
same,APTT,"[…], time 7 day",16.6 s
same,Bas,"[…], time 7 day",0%
same,Eos,"[…], time 7 day",0.6%
same,Fbg,"[…], time 7 day",235.2 mg/dL
same,Hb,"[…], time 7 day",13.3 g/dL
same,Ht,"[…], time 7 day",39.5%
same,Lym,"[…], time 7 day",80%
same,MCH,"[…], time 7 day",21.3 pg
same,MCHC,"[…], time 7 day",33.6%
same,MCV,"[…], time 7 day",63.6 fL
same,Mono,"[…], time 7 day",7.4%
same,Neu,"[…], time 7 day",12.4%
same,PT,"[…], time 7 day",11.7 s
same,Plat,"[…], time 7 day",109.6 x10_4/uL
same,RBC,"[…], time 7 day",621.2 x10_4/ul
same,Ret,"[…], time 7 day",6.3%
same,WBC,"[…], time 7 day",117.4 x10_2/uL
same,APTT,"[…], time 14 day",16.9 s
same,Bas,"[…], time 14 day",0%
same,Eos,"[…], time 14 day",0.6%
same,Fbg,"[…], time 14 day",235 mg/dL
same,Hb,"[…], time 14 day",13.9 g/dL
same,Ht,"[…], time 14 day",41.4%
same,Lym,"[…], time 14 day",83.4%
same,MCH,"[…], time 14 day",20.8 pg
same,MCHC,"[…], time 14 day",33.6%
same,MCV,"[…], time 14 day",61.9 fL
same,Mono,"[…], time 14 day",4.8%
same,Neu,"[…], time 14 day",11.4%
same,PT,"[…], time 14 day",11.5 s
same,Plat,"[…], time 14 day",119.3 x10_4/uL
same,RBC,"[…], time 14 day",669.6 x10_4/ul
same,Ret,"[…], time 14 day",5.5%
same,WBC,"[…], time 14 day",116.8 x10_2/uL
same,APTT,"[…], time 28 day",16.6 s
same,Bas,"[…], time 28 day",0%
same,Eos,"[…], time 28 day",1.2%
same,Fbg,"[…], time 28 day",225 mg/dL
same,Hb,"[…], time 28 day",15.1 g/dL
same,Ht,"[…], time 28 day",45.4%
same,Lym,"[…], time 28 day",82%
same,MCH,"[…], time 28 day",19 pg
same,MCHC,"[…], time 28 day",33.3%
same,MCV,"[…], time 28 day",57.1 fL
same,Mono,"[…], time 28 day",5.4%
same,Neu,"[…], time 28 day",11.8%
same,PT,"[…], time 28 day",11.6 s
same,Plat,"[…], time 28 day",109.6 x10_4/uL
same,RBC,"[…], time 28 day",797.4 x10_4/ul
same,Ret,"[…], time 28 day",2.6%
same,WBC,"[…], time 28 day",167.6 x10_2/uL
same,KIDNEY_L,"[…], time 7 day",1.2 g
same,KIDNEY_R,"[…], time 7 day",1.2 g
same,KIDNEY_TOTAL,"[…], time 7 day",2.3 g
same,KIDNEY_L,"[…], time 14 day",1.3 g
same,KIDNEY_R,"[…], time 14 day",1.2 g
same,KIDNEY_TOTAL,"[…], time 14 day",2.5 g
same,KIDNEY_L,"[…], time 28 day",1.3 g
same,KIDNEY_R,"[…], time 28 day",1.4 g
same,KIDNEY_TOTAL,"[…], time 28 day",2.7 g
same,LIVER,"[…], time 7 day",12.4 g
same,LIVER,"[…], time 14 day",14.7 g
same,LIVER,"[…], time 28 day",16.7 g
same,A/G,"[…], time 7 day",2
same,ALP,"[…], time 7 day",865.2 IU/L
same,ALT,"[…], time 7 day",35.2 IU/L
same,AST,"[…], time 7 day",61.6 IU/L
same,BUN,"[…], time 7 day",17.6 mg/dL
same,CRE,"[…], time 7 day",0.5 mg/dL
same,Ca,"[…], time 7 day",10.9 mg/dL
same,Cl,"[…], time 7 day",106 meq/L
same,DBIL,"[…], time 7 day",0.018 mg/dL
same,GLC,"[…], time 7 day",195.2 mg/dL
same,IP,"[…], time 7 day",7.5 mg/dL
same,K,"[…], time 7 day",4.8 meq/L
same,LDH,"[…], time 7 day",87.8 IU/L
same,Na,"[…], time 7 day",139.6 meq/L
same,PL,"[…], time 7 day",148.2 mg/dL
same,RALB,"[…], time 7 day",3.9 g/dL
same,TBIL,"[…], time 7 day",0.3 mg/dL
same,TC,"[…], time 7 day",79.2 mg/dL
same,TG,"[…], time 7 day",71.4 mg/dL
same,TP,"[…], time 7 day",5.9 g/dL
same,gamma-GTP,"[…], time 7 day",1.2 IU/L
same,A/G,"[…], time 14 day",2
same,ALP,"[…], time 14 day",821 IU/L
same,ALT,"[…], time 14 day",26.2 IU/L
same,AST,"[…], time 14 day",56.8 IU/L
same,BUN,"[…], time 14 day",19.2 mg/dL
same,CRE,"[…], time 14 day",0.5 mg/dL
same,Ca,"[…], time 14 day",11.3 mg/dL
same,Cl,"[…], time 14 day",106.6 meq/L
same,DBIL,"[…], time 14 day",0.01 mg/dL
same,GLC,"[…], time 14 day",184.4 mg/dL
same,IP,"[…], time 14 day",7.4 mg/dL
same,K,"[…], time 14 day",4.8 meq/L
same,LDH,"[…], time 14 day",84.6 IU/L
same,Na,"[…], time 14 day",139.8 meq/L
same,PL,"[…], time 14 day",175.2 mg/dL
same,RALB,"[…], time 14 day",4 g/dL
same,TBIL,"[…], time 14 day",0.3 mg/dL
same,TC,"[…], time 14 day",83.2 mg/dL
same,TG,"[…], time 14 day",141.4 mg/dL
same,TP,"[…], time 14 day",6.1 g/dL
same,gamma-GTP,"[…], time 14 day",1.8 IU/L
same,A/G,"[…], time 28 day",1.8
same,ALP,"[…], time 28 day",696.4 IU/L
same,ALT,"[…], time 28 day",52.8 IU/L
same,AST,"[…], time 28 day",103.6 IU/L
same,BUN,"[…], time 28 day",20.4 mg/dL
same,CRE,"[…], time 28 day",0.4 mg/dL
same,Ca,"[…], time 28 day",10.9 mg/dL
same,Cl,"[…], time 28 day",105.6 meq/L
same,DBIL,"[…], time 28 day",0.006 mg/dL
same,GLC,"[…], time 28 day",195.2 mg/dL
same,IP,"[…], time 28 day",6.5 mg/dL
same,K,"[…], time 28 day",4.5 meq/L
same,LDH,"[…], time 28 day",172.8 IU/L
same,Na,"[…], time 28 day",139.6 meq/L
same,PL,"[…], time 28 day",165.2 mg/dL
same,RALB,"[…], time 28 day",4.2 g/dL
same,TBIL,"[…], time 28 day",0.3 mg/dL
same,TC,"[…], time 28 day",78.6 mg/dL
same,TG,"[…], time 28 day",139.8 mg/dL
same,TP,"[…], time 28 day",6.5 g/dL
same,gamma-GTP,"[…], time 28 day",1.6 IU/L
